Data published in patent US20130274196A1, “METHOD FOR TREATMENT OF INFLAMMATORY DISEASE AND DISORDER” (HEALOR LTD., priority 2010, published 2013).
The star is where a group is joined. Palmitoyl = CCCCCCCCCCCCCCCC(=O)*; Myristoyl = CCCCCCCCCCCCCC(=O)*

Legend:
[1] = tested on: EAE mice; assay: Experimental allergic encephalomyelitis (EAE), MOG35-55/CFA immunized mice; type: in vivo, C57BL/6J mice; settings: for Number of dead mice during 49 days: n=7; for Score on day 18 / Score on day 29 / Score on day 37: EAE scale 0-6; for EAE score on the initial day: scale 0-6
[2] = tested on: keratinocytes; assay: Cytokine secretion in LPS, TNFα or IL-17 activated keratinocytes treated with peptide PKCα inhibitors (ELISA); type: cell-based, BALB/C mice; settings: for cytokine secretion in keratinocytes: stimulated by LPS, TNFα, or IL-17, medium collected after 48 hr
Procedure: To determine their effects, keratinocytes were derived from newborn BALB/C mice skin. The cells were incubated for 5 days in 24 wells plate. Cells were then incubated with PBS −/− as control or stimulated by LPS, TNFα, or IL-17. PKCα inhibitors were added as indicated. Medium containing secreted cytokines was collected after 48 hr and analyzed using ELISA. FIG. 50 is a tabular summary of cytokine secretion.

CRAMP [reference compound]
The initial day (of illness signs) ([1]; 0.2 mg/kg): 10 days
Number of dead mice during 49 days ([1]; 0.2 mg/kg i.p. three times a week): 2
Score on day 18 ([1]; 0.2 mg/kg): 3.214
Score on day 29 ([1]; 0.2 mg/kg): 2.000
Score on day 37 ([1]; 0.2 mg/kg): 2.571
EAE score on the initial day ([1]; 0.2 mg/kg): 0.571
The initial day (of illness signs) ([1]; 2 mg/kg): 11 days
Number of dead mice during 49 days ([1]; 2 mg/kg i.p. three times a week): 2
Score on day 18 ([1]; 2 mg/kg): 2.643
Score on day 29 ([1]; 2 mg/kg): 2.643
Score on day 37 ([1]; 2 mg/kg): 2.143
EAE score on the initial day ([1]; 2 mg/kg): 0.143

H-Phe-Ala-Arg-Lys-Gly-Ala-Leu-Arg-Gln-OH (H-FARKGALRQ-OH) [AWOT-1]
cytokine secretion in keratinocytes [2]: effective in decreasing cytokine secretion

H-Phe-Ala-Arg-Lys-Gly-Ala-Leu-Arg-Gln-OH-acetate salt (H-FARKGALRQ-OH; also: acetate salt) [PDY-1]
cytokine secretion from IL-17A activated keratinocytes [2]: decrease cytokine secretion
cytokine secretion from LPS and TNFα activated keratinocytes [2]: decrease cytokine secretion

H-Thr-Leu-Asn-Pro-Gln-Trp-Glu-Ser-OH (H-TLNPQWES-OH) [AIP-1]
cytokine secretion in keratinocytes [2]: effective in decreasing cytokine secretion

Myristoyl-Phe-Ala-Arg-Lys-Gly-Ala-Leu-OH (Myristoyl-FARKGAL-OH; SMILES CCCCCCCCCCCCCC(=O)N[C@@H](Cc1ccccc1)C(=O)N[C@@H](C)C(=O)N[C@@H](CCCNC(=N)N)C(=O)N[C@@H](CCCCN)C(=O)NCC(=O)N[C@@H](C)C(=O)N[C@@H](CC(C)C)C(=O)O) [MPDY-1 sh]
cytokine secretion from IL-17A activated keratinocytes [2]: decrease cytokine secretion
cytokine secretion from LPS and TNFα activated keratinocytes [2]: decrease cytokine secretion

Myristoyl-Phe-Ala-Arg-Lys-Gly-Ala-Leu-OH-trifluoracetate salt (Myristoyl-FARKGAL-OH; also: trifluoroacetate salt) [AIP-2]
cytokine secretion in keratinocytes [2]: effective in decreasing cytokine secretion

Myristoyl-Thru-Arg-Lys-Arg-Gln-Arg-Ala-Met-Arg-Arg-Arg-Val-His-Gln-Ile-Asn-Gly-OH (Myristoyl-TRKRQRAMRRRVHQING-OH; SMILES CCCCCCCCCCCCCC(=O)N[C@H](C(=O)N[C@@H](CCCNC(=N)N)C(=O)N[C@@H](CCCCN)C(=O)N[C@@H](CCCNC(=N)N)C(=O)N[C@@H](CCC(N)=O)C(=O)N[C@@H](CCCNC(=N)N)C(=O)N[C@@H](C)C(=O)N[C@@H](CCSC)C(=O)N[C@@H](CCCNC(=N)N)C(=O)N[C@@H](CCCNC(=N)N)C(=O)N[C@@H](CCCNC(=N)N)C(=O)N[C@H](C(=O)N[C@@H](Cc1c[nH]cn1)C(=O)N[C@@H](CCC(N)=O)C(=O)N[C@H](C(=O)N[C@@H](CC(N)=O)C(=O)NCC(=O)O)[C@@H](C)CC)C(C)C)[C@@H](C)O) [MPE-1]
The initial day (of illness signs) ([1]; 0.1 mg/kg): 11 days
EAE severity / score compared to control group ([1]; 0.1 mg/kg (0.1 μg/ml)): reduced EAE severity
Score on day 18 ([1]; 0.1 mg/kg): 2.857
Score on day 29 ([1]; 0.1 mg/kg): 1.929
Score on day 37 ([1]; 0.1 mg/kg): 1.429
EAE score on the initial day ([1]; 0.1 mg/kg): 0.429
The initial day (of illness signs) ([1]; 1 mg/kg): 10 days
Number of dead mice during 49 days ([1]; 1 mg/kg i.p. three times a week): 4
Score on day 18 ([1]; 1 mg/kg): 3.071
Score on day 29 ([1]; 1 mg/kg): 4.286
Score on day 37 ([1]; 1 mg/kg): 4.286
EAE score on the initial day ([1]; 1 mg/kg): 0.429
average group score at the end of the experiment (day 42) ([1]; concentration of 0.1 μg/ml, control group score 2.86): 2.00

Palmitoyl-Phe-Ala-Arg-Lys-Gly-Ala-Leu-Arg-Gln-OH-acetate salt (Palmitoyl-FARKGALRQ-OH; also: acetate salt) [PPDY-1]
cytokine secretion in keratinocytes [2]: effective in decreasing cytokine secretion
